Results: US10786485B1, “Charged ion channel blockers and methods for use” (Nocion Therapeutics, Inc., priority 2019, dated 2020)
Counter-ions that a name gives are not always drawn.

Assays:
NaV1.7 [1] = target: T1, NaV1.7 (Homo sapiens, UniProt Q15858); assay: Whole cell patch clamp, internal block of Nav1.7 current; assay type: cell-based; conditions: test concentration of 10 μM; compound dissolved in internal solution; 5 Hz stimulation; read-out: Nav1.7 intracellular inhibition
T1 construct: expressed in transfected cells; host or cells: tetracycline-inducible cell line kept under hygromycin and blasticidin
T1 sequence (Q15858 whole entry): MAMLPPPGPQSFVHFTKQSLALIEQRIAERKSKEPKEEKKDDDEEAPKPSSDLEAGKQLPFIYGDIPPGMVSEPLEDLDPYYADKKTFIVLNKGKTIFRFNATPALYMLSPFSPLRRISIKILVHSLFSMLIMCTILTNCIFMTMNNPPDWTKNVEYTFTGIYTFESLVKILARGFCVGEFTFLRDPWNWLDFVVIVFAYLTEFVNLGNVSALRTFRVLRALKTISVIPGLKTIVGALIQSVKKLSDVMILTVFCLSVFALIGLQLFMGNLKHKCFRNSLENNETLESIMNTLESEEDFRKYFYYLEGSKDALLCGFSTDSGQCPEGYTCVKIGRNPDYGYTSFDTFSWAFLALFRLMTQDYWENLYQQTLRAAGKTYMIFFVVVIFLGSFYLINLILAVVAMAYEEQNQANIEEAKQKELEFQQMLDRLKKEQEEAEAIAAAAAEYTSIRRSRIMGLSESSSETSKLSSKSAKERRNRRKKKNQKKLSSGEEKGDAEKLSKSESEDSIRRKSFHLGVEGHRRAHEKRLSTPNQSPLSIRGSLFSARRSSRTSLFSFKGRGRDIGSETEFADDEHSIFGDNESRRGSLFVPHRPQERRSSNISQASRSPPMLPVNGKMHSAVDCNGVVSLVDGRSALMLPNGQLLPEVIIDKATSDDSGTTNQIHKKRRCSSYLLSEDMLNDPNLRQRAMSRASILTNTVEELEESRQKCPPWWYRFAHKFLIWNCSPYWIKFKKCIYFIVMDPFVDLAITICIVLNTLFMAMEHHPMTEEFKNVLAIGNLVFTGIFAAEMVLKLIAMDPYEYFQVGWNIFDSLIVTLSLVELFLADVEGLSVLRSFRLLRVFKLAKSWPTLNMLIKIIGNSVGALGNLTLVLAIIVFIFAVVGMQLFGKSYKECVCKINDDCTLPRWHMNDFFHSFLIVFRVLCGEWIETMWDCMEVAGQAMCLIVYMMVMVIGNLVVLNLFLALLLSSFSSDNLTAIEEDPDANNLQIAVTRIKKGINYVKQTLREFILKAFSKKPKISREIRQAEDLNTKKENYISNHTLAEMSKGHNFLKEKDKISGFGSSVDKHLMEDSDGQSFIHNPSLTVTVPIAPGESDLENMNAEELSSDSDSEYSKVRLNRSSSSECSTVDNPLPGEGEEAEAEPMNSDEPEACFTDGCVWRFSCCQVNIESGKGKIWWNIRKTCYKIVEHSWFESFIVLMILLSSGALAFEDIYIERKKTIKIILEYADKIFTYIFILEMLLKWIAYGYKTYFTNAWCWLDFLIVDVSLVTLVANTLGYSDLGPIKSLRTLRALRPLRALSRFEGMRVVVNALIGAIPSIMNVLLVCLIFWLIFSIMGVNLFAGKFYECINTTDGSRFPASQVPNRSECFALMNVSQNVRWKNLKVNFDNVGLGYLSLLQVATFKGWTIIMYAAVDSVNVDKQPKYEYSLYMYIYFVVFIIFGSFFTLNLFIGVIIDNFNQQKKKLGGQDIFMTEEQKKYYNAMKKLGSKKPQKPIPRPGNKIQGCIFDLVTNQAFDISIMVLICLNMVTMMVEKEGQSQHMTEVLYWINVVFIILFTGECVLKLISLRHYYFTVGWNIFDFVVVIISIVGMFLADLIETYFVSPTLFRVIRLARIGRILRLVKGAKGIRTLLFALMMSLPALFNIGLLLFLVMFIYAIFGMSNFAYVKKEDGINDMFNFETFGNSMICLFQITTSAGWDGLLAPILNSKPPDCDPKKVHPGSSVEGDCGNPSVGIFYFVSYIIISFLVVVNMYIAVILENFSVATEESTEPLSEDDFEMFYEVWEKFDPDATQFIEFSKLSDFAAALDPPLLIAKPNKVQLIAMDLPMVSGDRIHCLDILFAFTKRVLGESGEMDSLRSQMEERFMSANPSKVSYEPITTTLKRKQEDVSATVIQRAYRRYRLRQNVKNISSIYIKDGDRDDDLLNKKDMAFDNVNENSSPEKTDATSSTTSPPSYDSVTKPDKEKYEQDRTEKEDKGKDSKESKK
Protocol: NaV1.7 was expressed upon induction with tetracycline. Cells were cultured in DMEM containing 10% dialyzed Fetal Bovine Serum (VWR, Radnor, Pa.), 1% Glutamax (VWR, Radnor, Pa.), 1% Penicillin-Streptomycin (VWR, Radnor, Pa.), 100 mg/L Hygromycin (Thermo Fisher Scientific, Waltham, Mass. and 5 mg/L Blasticidin (Alfa Aesar, Haverhill, Mass.). Cells were grown and maintained at 37° C. in a humidified environment containing 10% CO2 in air. Cells were detached from the culture flask for passage and harvested using 0.05% Trypsin-EDTA (Thermo Fisher Scientific, Waltham, Mass.). To induce NaV1.7, cells were induced with tetracycline (0.1-1 μg/mL, IBI Scientific, Peosta, Iowa) the day before recording and plated onto 24-well plates. […] For one 24-well plate, 2 mL of cell suspension was mixed with 23 mL of fresh growth media and 0.1-1 μg/mL tetracycline added. 1 ml of mixed media with cells was then added to each well of a 24-well plate, with a 12 mm coverslip already placed in the bottom of the well. Cells were then incubated in 37° C. and 10% CO2 overnight. The intracellular solution contained the following (in mM) CsCl 135, NaCl 10, EGTA 10, HEPES 10, MgCl2 2, adjusted to pH 7.2 with CsOH. The external solution was a normal Ringer solution containing (in mM) NaCl 155, HEPES 10, glucose 10, KCl 3.5, CaCl2 1.5, MgCl2 1 adjusted to pH 7.4 with NaOH. CsCl is from Alfa Aesar, Haverhill, Mass. All other chemicals are from Sigma-Aldrich, St. Louis, Mo. In order to test the degree of internal block by test compounds the compounds were dissolved in internal solution at the indicated test concentration. […] In order to test the degree of external block by test compounds the compounds were dissolved in external solution at the indicated test concentration. 18-24 hours after cells were induced with tetracycline, coverslips were placed into a chamber filled with Normal Ringer solution at room temperature and the chamber placed on a microscope. Pipettes were pulled from borosilicate glass on a P97 puller (Sutter Instrument, Novato, Calif.) and polished with a MF-830 Microforge (Narishige International USA, Inc, Amityville, N.Y.) to have a resistance of 1.5-2.5 MΩ when filled with CsCl internal solution at room temperature. Healthy cells (those that are round and translucent with no visible blemishes) were chosen for seal formation. A seal was formed between the pipette and the cell, and a brief pulse of suction was used to “break in” and establish the whole-cell configuration. The membrane potential was held at −100 mV before the voltage protocol began. Only cells with series resistance between 1.5-5 MΩ were retained for analysis. The voltage protocol was as follows: Cells were held at −100 mV for 12 ms followed by a hyperpolarizing step to −105 mV for 12 ms to monitor the leak. Cells were then stepped back to −100 mV for 40 ms. Cells were then depolarized to −20 mV for 10 ms and then returned to −100 mV for 26 ms (The FIGURE). Once the recording was started, the voltage protocol was run at 30 second intervals for 5 minutes to get a stable baseline. […] Currents were recorded using PatchMaster software with Heka EPC10 (HEKA Electronics, Lambrecht, Germany). […] The data was plotted using the Patchmaster software (HEKA Electronics, Lambrecht, Germany) and analyzed by plotting the minimum current during the voltage step to −20 mV (peak inward current) as a function of time. […]

NaV1.7 [2] = target: T1, NaV1.7; assay: Whole cell patch clamp, external block of Nav1.7 current; assay type: cell-based; conditions: test concentration of 30 μM; compound in external solution for 5 minutes; 5 Hz stimulation; read-out: Nav1.7 extracellular inhibition
Protocol: NaV1.7 was expressed upon induction with tetracycline. Cells were cultured in DMEM containing 10% dialyzed Fetal Bovine Serum (VWR, Radnor, Pa.), 1% Glutamax (VWR, Radnor, Pa.), 1% Penicillin-Streptomycin (VWR, Radnor, Pa.), 100 mg/L Hygromycin (Thermo Fisher Scientific, Waltham, Mass. and 5 mg/L Blasticidin (Alfa Aesar, Haverhill, Mass.). Cells were grown and maintained at 37° C. in a humidified environment containing 10% CO2 in air. Cells were detached from the culture flask for passage and harvested using 0.05% Trypsin-EDTA (Thermo Fisher Scientific, Waltham, Mass.). To induce NaV1.7, cells were induced with tetracycline (0.1-1 μg/mL, IBI Scientific, Peosta, Iowa) the day before recording and plated onto 24-well plates. […] For one 24-well plate, 2 mL of cell suspension was mixed with 23 mL of fresh growth media and 0.1-1 μg/mL tetracycline added. 1 ml of mixed media with cells was then added to each well of a 24-well plate, with a 12 mm coverslip already placed in the bottom of the well. Cells were then incubated in 37° C. and 10% CO2 overnight. The intracellular solution contained the following (in mM) CsCl 135, NaCl 10, EGTA 10, HEPES 10, MgCl2 2, adjusted to pH 7.2 with CsOH. The external solution was a normal Ringer solution containing (in mM) NaCl 155, HEPES 10, glucose 10, KCl 3.5, CaCl2 1.5, MgCl2 1 adjusted to pH 7.4 with NaOH. CsCl is from Alfa Aesar, Haverhill, Mass. All other chemicals are from Sigma-Aldrich, St. Louis, Mo. In order to test the degree of internal block by test compounds the compounds were dissolved in internal solution at the indicated test concentration. […] In order to test the degree of external block by test compounds the compounds were dissolved in external solution at the indicated test concentration. 18-24 hours after cells were induced with tetracycline, coverslips were placed into a chamber filled with Normal Ringer solution at room temperature and the chamber placed on a microscope. Pipettes were pulled from borosilicate glass on a P97 puller (Sutter Instrument, Novato, Calif.) and polished with a MF-830 Microforge (Narishige International USA, Inc, Amityville, N.Y.) to have a resistance of 1.5-2.5 MΩ when filled with CsCl internal solution at room temperature. Healthy cells (those that are round and translucent with no visible blemishes) were chosen for seal formation. A seal was formed between the pipette and the cell, and a brief pulse of suction was used to “break in” and establish the whole-cell configuration. The membrane potential was held at −100 mV before the voltage protocol began. Only cells with series resistance between 1.5-5 MΩ were retained for analysis. The voltage protocol was as follows: Cells were held at −100 mV for 12 ms followed by a hyperpolarizing step to −105 mV for 12 ms to monitor the leak. Cells were then stepped back to −100 mV for 40 ms. Cells were then depolarized to −20 mV for 10 ms and then returned to −100 mV for 26 ms (The FIGURE). Once the recording was started, the voltage protocol was run at 30 second intervals for 5 minutes to get a stable baseline. This is followed by 5 Hz stimulation of the same voltage protocol run until the end of experiment. […] Currents were recorded using PatchMaster software with Heka EPC10 (HEKA Electronics, Lambrecht, Germany). […] The data was plotted using the Patchmaster software (HEKA Electronics, Lambrecht, Germany) and analyzed by plotting the minimum current during the voltage step to −20 mV (peak inward current) as a function of time. […]

[3] = PAMPA membrane permeability assay; assay type: in vitro ADME; conditions: GIT lipid, buffer pH 7.4, incubated 4 hours
Protocol: The PAMPA assay (pION, Inc., Woburn Mass.) was used to determine the ability of compounds of the invention to cross an artificial lipid membrane by passive diffusion. Test compounds were dissolved in DMSO (10 mM) and diluted 200-fold in buffer (pION Inc., pH 7.4) to provide 50 uM stock solutions. Buffer (150 μL) was added to a UV blank plate and stock solutions (150 μL) were transferred to a UV reference plate. The blank and reference spectrum were read using a spectrophotometer. Stock solutions (200 μL) were added to the donor plate of the PAMPA sandwich plate and an accept plate painted with GIT lipid (pION Inc, 5 μL) was placed on top. Buffer (200 μL) was added to the acceptor plate and the PAMPA sandwich plate was incubated for 4 hours. Aliquots (150 μL) from the acceptor plate were added to a UV plate and read as acceptor spectrum. Aliquots (150 μL) of the donor solutions were added to a UV analysis plate and read as donor spectrum. The permeability coefficient of test compounds was calculated using PAMPA Explorer™ software (version 3.5.0.4) based on the AUC of the reference plate, the donor plate, and the acceptor plate.

inhibition at 10 µM (NaV1.7 [1])	inhibition at 30 µM (NaV1.7 [2])	Papp at 4 h, 50 µM [3]	Compound
> 65%	< 25%		Cc1cn(C)[n+](CC(=O)Nc2c(C)cccc2C)c1 [1′A, 2-(2-((2,6-dimethylphenyl)amino)-2-oxoethyl)-1,4-dimethyl-1H-pyrazol-2-ium bromide]
> 65%	< 25%		Cc1cccc(C)c1NC(=O)C[n+]1cccn1-c1ccccc1 [4′A, 2-(2-((2,6-dimethylphenyl)amino)-2-oxoethyl)-1-phenyl-1H-pyrazol-2-ium Formate]
> 65%	< 25%	≤ 1.2 ×10⁻⁶ cm/s	Cc1cccc(C)c1NC(=O)C[n+]1cccn1CC(C)C.[Br-] [Compound 2′A, 2-(2-((2,6-dimethylphenyl)amino)-2-oxoethyl)-1-isobutyl-1H-pyrazol-2-ium bromide]
> 65%	< 25%	≤ 1.2 ×10⁻⁶ cm/s	Cc1cccc(C)c1NC(=O)C[n+]1cccn1C1CCCCC1.[Br-] [Compound 3′A, 1-cyclohexyl-2-(2-((2,6-dimethylphenyl)amino)-2-oxoethyl)-1H-pyrazol-2-ium bromide]
> 65%	< 25%	≤ 1.2 ×10⁻⁶ cm/s	CCNC(=O)Cn1ccc[n+]1CC(=O)Nc1c(C)cccc1C.[Br-] [Compound 5′A, 2-(2-((2,6-dimethylphenyl)amino)-2-oxoethyl)-1-(2-(ethylamino)-2-oxoethyl)-1H-pyrazol-2-ium bromide]
